These are literature values, as cited in patent US20220088150A1, “Octreotide Microsphere-Based Arterial Embolization for Treating Obesity” (Biovena Science, LLC, priority 2018, published 2022).

For one data set, the system named is ghrelin secretion. To be noted: continuous infusion, dose- and time-dependent.
In a further data set the test system is insulin hypersecretion. To be noted: six months, 5-15 μg/kg/day.
For data set [1] the following is noted: subcutaneously 5-15 μg/kg/day, six months, compared with placebo.

`C[C@@H](O)[C@@H]1NC(=O)[C@H](CCCCN)NC(=O)[C@@H](Cc2c[nH]c3ccccc23)NC(=O)[C@H](Cc2ccccc2)NC(=O)[C@@H](NC(=O)[C@H](N)Cc2ccccc2)CSSC[C@@H](C(=O)N[C@H](CO)[C@@H](C)O)NC1=O` [octreotide, D-phenylalanyl-L-cysteinyl-L-phenylalanyl-D-tryptophyl-L-lysyl-L-threonyl-L-cysteinyl-L-threoninol (2→7)-disulfide]: the ghrelin secretion result in the data set on ghrelin secretion is recorded as “suppresses ghrelin secretion”. For the same compound, the splanchnic blood flow result (healthy human subjects) is recorded as “reduces splanchnic blood flow”. For the same compound, where the note is “human, in vivo”, the gastric emptying result is “delays gastric emptying”. In addition, in the data set with insulin hypersecretion, the calorie intake decrease entry is given as “approximately 700 kcal/day”. In the data set on insulin hypersecretion (vs pre-study observation period, p=0.0001), the BMI entry is “BMI decrease”. Moreover, the weight loss result in the data set on insulin hypersecretion (vs six-month pre-study observation period, p=0.04) is recorded as “greater weight loss”. In addition, in data set [1], the “weight and BMI” value is “effective in stabilizing weight and BMI”.
